Values joined by “and” are separate entries in the source; they are usually repeats but may differ in a detail not shown here. Equal values may be shown once. Toxic doses and inconclusive results are not listed. Cut-off read from the data, not from the text of the source: active = T/C of 150% or more; inactive = T/C below 125%.
Tested on: L1210 leukemia ip in BDF1 mice, survival T/C
Assay: NCI In Vivo Anticancer Drug Screen. Data for tumor model L1210 Leukemia (intraperitoneal) in B6D2F1 (BDF1) mice
Details: endpoint: mean survival time, higher = longer survival
In short: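 In this screen, tumor-bearing mice given compound are compared to those given vehicle, and their survival values are reported as a treated-to-control quotient.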

[1] = dose: 100.0 mg/kg/injection, schedule: Q01DX009 (ip), vehicle: Klucel (hydroxypropylcellulose) (HPC)
[2] = dose: 100.0 mg/kg/injection, schedule: Q04DX003 (ip), vehicle: Klucel (hydroxypropylcellulose) (HPC)
[3] = dose: 200.0 mg/kg/injection, schedule: Q04DX003 (ip), vehicle: Klucel (hydroxypropylcellulose) (HPC)
[4] = dose: 400.0 mg/kg/injection, schedule: Q04DX003 (ip), vehicle: Klucel (hydroxypropylcellulose) (HPC)

Measured: T/C

NC(N)=N/N=C(/c1cccs1)C1CC1
inactive: dose: 15.0 mg/kg/injection, schedule: Q01DX Z (ip), vehicle: methylcellulose (MC) 101 % of control | dose: 15.0 mg/kg/injection, schedule: Q01DX Z (oral), vehicle: methylcellulose (MC) 92 % of control | dose: 30.0 mg/kg/injection, schedule: Q01DX Z (ip), vehicle: methylcellulose (MC) 96 % of control | dose: 30.0 mg/kg/injection, schedule: Q01DX Z (oral), vehicle: methylcellulose (MC) 97 % of control | dose: 60.0 mg/kg/injection, schedule: Q01DX Z (ip), vehicle: methylcellulose (MC) 110 % of control | dose: 120.0 mg/kg/injection, schedule: Q01DX Z (ip), vehicle: methylcellulose (MC) 97 % of control

Cc1cn(-c2c(C)c(C)c(-n3c(C)ccc3C)c(C)c2C)cc1C
inactive: [1] 86 % of control | dose: 200.0 mg/kg/injection, schedule: Q01DX009 (ip), vehicle: Klucel (hydroxypropylcellulose) (HPC) 93 % of control | dose: 400.0 mg/kg/injection, schedule: Q01DX009 (ip), vehicle: Klucel (hydroxypropylcellulose) (HPC) 90 % of control

O=C(NC(CSC(c1ccccc1)c1ccccc1)C(=O)O)OCc1ccccc1 (centres undefined)
inactive: dose: 25.0 mg/kg/injection, schedule: Q01DX009 (ip), vehicle: Klucel (hydroxypropylcellulose) (HPC) 103 % of control | dose: 50.0 mg/kg/injection, schedule: Q01DX009 (ip), vehicle: Klucel (hydroxypropylcellulose) (HPC) 100 % of control | [1] 100 % of control and 88 % of control | [2] 93 % of control | [3] 95 % of control | [4] 89 % of control

O=C(O)CC(c1ccccc1)C(CC(=O)O)c1ccccc1 (centres undefined)
inactive: [2] 91 % of control | [3] 95 % of control | [4] 96 % of control

COc1ccc(CCN=C2C3CC4CC(C3)CC2C4)cc1OC
inactive: dose: 100.0 mg/kg/injection, schedule: Q01DX001 (ip), vehicle: saline 98 % of control | dose: 200.0 mg/kg/injection, schedule: Q01DX001 (ip), vehicle: saline 98 % of control | dose: 400.0 mg/kg/injection, schedule: Q01DX001 (ip), vehicle: saline 103 % of control

CCCCCCCCc1ccccc1
inactive: dose: 100.0 mg/kg/injection, schedule: Q04DX002 (ip), vehicle: saline 99 % of control | dose: 200.0 mg/kg/injection, schedule: Q04DX002 (ip), vehicle: saline 96 % of control | dose: 400.0 mg/kg/injection, schedule: Q04DX002 (ip), vehicle: saline 99 % of control

O=C(CNC(=O)OCc1ccccc1)NCCCCCCNCCCCCCNC(=O)CNC(=O)OCc1ccccc1
inactive: dose: 1.25 mg/kg/injection, schedule: Q01DX Z (ip), vehicle: saline 93 % of control | dose: 2.5 mg/kg/injection, schedule: Q01DX Z (ip), vehicle: saline 93 % of control | dose: 5.0 mg/kg/injection, schedule: Q01DX Z (ip), vehicle: saline 94 % of control | dose: 10.0 mg/kg/injection, schedule: Q01DX Z (ip), vehicle: saline 93 % of control

NC(=O)c1ccc[n+](CCO)c1
inactive: dose: 3.1 mg/kg/injection, schedule: Q01DX009 (ip), vehicle: saline 102 % of control | dose: 6.25 mg/kg/injection, schedule: Q01DX009 (ip), vehicle: saline 104 % of control | dose: 12.5 mg/kg/injection, schedule: Q01DX009 (ip), vehicle: saline 98 % of control | dose: 25.0 mg/kg/injection, schedule: Q01DX009 (ip), vehicle: saline 104 % of control | dose: 50.0 mg/kg/injection, schedule: Q01DX009 (ip), vehicle: saline 110 % of control | dose: 100.0 mg/kg/injection, schedule: Q01DX009 (ip), vehicle: saline 100 % of control | dose: 115.0 mg/kg/injection, schedule: Q01DX Z (ip), vehicle: saline 100 % of control | dose: 150.0 mg/kg/injection, schedule: Q04DX003 (ip), vehicle: saline 100 % of control | dose: 175.0 mg/kg/injection, schedule: Q01DX Z (ip), vehicle: saline 94 % of control | dose: 225.0 mg/kg/injection, schedule: Q04DX003 (ip), vehicle: saline 104 % of control | dose: 265.0 mg/kg/injection, schedule: Q01DX Z (ip), vehicle: saline 105 % of control | dose: 335.0 mg/kg/injection, schedule: Q04DX003 (ip), vehicle: saline 100 % of control | dose: 400.0 mg/kg/injection, schedule: Q01DX Z (ip), vehicle: saline 100 % of control

CCOC(=O)CCC(C(=O)OCC)c1nc2ccccc2[nH]c1=O (centres undefined)
inactive: [2] 108 % of control | [3] 108 % of control | [4] 96 % of control
